Measured values: patent publication US20100280987A1, “METHODS AND GENE EXPRESSION SIGNATURE FOR ASSESSING RAS PATHWAY ACTIVITY” (priority 2009, published 2010)
Entries after “also recorded” stand apart in the source; their conditions may differ.

How the values were obtained:
[1] = system: p53 loss of function and KRas mutant lung tumors (7450 KP-model); assay: tumor progression in 7450 KP-model mice; assay type: in vivo; conditions: 7450 KP mice, after 4 weeks of treatment (data not shown)
[2] = blood concentration of AZD6244 post-dose in mice; assay type: in vivo, CD-1 nude mice
[3] = system: RAS pathway signature; assay: RAS pathway signature score in tumors after treatment in vivo; conditions: 7450 KP-model mice, 150 mpk, three doses 10 hours apart, tumors 4 hours post last dose; 150 mg/kg
Method: As a first step in the analysis of the RAS signatures, we assessed the coherency of the signatures across four cell line panels from lung, colon, breast, and lymphoid malignancies. The purpose of coherence analysis is to show the statistical significance of the difference between the “Up” and “Down” arms of the signature in a new dataset. Two correlation coefficients were calculated for all of the genes in both the Up and Down arms. First, the correlation between each gene in the Up arm and the average of all genes in the Up arm is calculated. Second, the anticorrelation between each gene in the Up arm and the average of all genes in the Down arm is calculated. This is repeated for genes in the Down arm. […] A Fisher exact test is calculated for correlation within and between arms of the signature to assess the significance of signature coherence in a new dataset. […] RAS pathway activity (or regulation) is summarized into a RAS signature score, which is calculated as: (mean expression of Up genes (Table 2a))—(mean expression of Down genes (Table 2b)). […]
The 7450 KP mice were treated with a small molecule MEK inhibitor, AZD6244 (Ohren et al., 2004, Nat. Struct. Mol. Biol. 11:119201197). […] RAS signature pathway signatures scores were calculated as previously described for each time point and plotted (FIG. 18).

[4] = system: MEK1 and MEK2; conditions: purified enzyme, read-out: in vitro IC50 against purified enzyme; cited from earlier work

Structure (SMILES): Cn1cnc2c(F)c(Nc3ccc(Br)cc3Cl)c(C(=O)NOCCO)cc21 [AZD6244]
- tumor progression compared vehicle [1]: significantly halted tumor progression
- clearance post-dose ([2]; CD-1 nude mice): cleared quickly
- half-life in vivo ([2]; in vivo): short half-life
- blood concentration after the peak ([2]; mice (CD-1 nude mice), blood): decreased rapidly
- RAS pathway signature score in vivo at 4 hours post-dose [3]: down regulated; also recorded: down-regulated
- IC50 [4]: 0.01 to 0.014 µM
